Measurements reported in PMC8913810, “New insights into the resistance mechanism for the BceAB-type transporter SaNsrFP” (Scientific Reports, 2022).
Where two headings read alike, the source gives them in different places. Bridge positions count the residues as written; N and C are the ends. Square brackets hold non-standard residues; d marks the D form. Peptide text beside a SMILES is read from it. * marks the point of attachment. Ileψ(thiazoline)Cys = CC[C@H](C)[C@H](N)C1=N[C@H](C(=O)*)CS1; dOrn = NCCC[C@@H](N)C(=O)O

What was measured:
L. lactis NZ9000Cm [1] = conditions: read-out: IC50 (nM) L. lactis NZ9000Cm; GM17, 5 µg/ml chloramphenicol, 0.3 nM nisin, 30 °C, 5 h, optical density; at least 3 biological replicates with 3 technical replicates each
Procedure: (§1) After adding the different antibiotics to the cultures of the strains L. lactis wild type (WT), L. lactis NZ9000Cm, L. lactis NZ9000SaNsrFP and L. lactis SaNsrFH202AP, the IC50 was determined.
(§2) The half maximal inhibitory concentration was determined according to Abts et al.[71]. Briefly, L. lactis NZ9000Cm, L. lactis NZ9000SaNsrFP and L. lactis NZ9000SaNsrFH202AP cells were grown in GM17 medium containing 5 µg/ml chloramphenicol and 0.3 nM nisin at 30 °C overnight. Fresh GM17Cm medium with a sublethal amount of nisin (0.3 nM) was inoculated with overnight cultures to an OD600 of 0.1. A 96-well plate was prepared with a serial dilution of examined antibiotics (concentration ranges ramoplanin 0.014 nM–3.75 µM; lysobactin 0.002 nM–10 µM; vancomycin 0.02 nM–80 µM; nisin 0.0001 nM–0.5 µM) and subsequently the cell culture was added and plates were incubated at 30 °C for 5 h. Afterwards, the optical density was measured, and the IC50 values for each strain and antibiotic were calculated.

[2] = system: L. lactis NZ9000NsrFH202AP; conditions: for Fold of resistance L. lactis NZ9000NsrFH202AP: IC50 of NZ9000NsrFH202AP divided by IC50 of NZ9000Cm; for IC50: read-out: IC50 (nM) L. lactis NZ9000NsrFH202AP, GM17, 5 µg/ml chloramphenicol, 0.3 nM nisin, 30 °C, 5 h, optical density, at least 3 biological replicates with 3 technical replicates each
Procedure: as §1, §2

L. lactis NZ9000NsrFP [3] = conditions: for Fold of resistance L. lactis NZ9000NsrFP: IC50 of NZ9000NsrFP divided by IC50 of NZ9000Cm; for IC50: read-out: IC50 (nM) L. lactis NZ9000NsrFP, GM17, 5 µg/ml chloramphenicol, 0.3 nM nisin, 30 °C, 5 h, optical density, at least 3 biological replicates with 3 technical replicates each
Procedure: as §1, §2

L. lactis NZ9000Cm [4] = experiment: Growth curve, empty-plasmid strain; assay type: cell-based, Lactococcus lactis; conditions: 1 µM bacitracin + 1 mM ZnCl2 or 4 µM bacitracin without zinc; 0.3 nM nisin; monitored over 500 min, 30 °C
Text: (§3) To investigate whether SaNsrFP confers resistance against bacitracin and Zn-bacitracin, binding to the lipid carrier UPP[20],[52], we analyzed the influence of the expression of the sansrfp gene. The sensitive L. lactis strain NZ9000, served as an indicator strain for these studies which was transformed with a plasmid encoding the nsrfp gene. We included two controls where the strains were transformed with (I) an empty plasmid (L. lactis NZ9000Cm) (II) a plasmid containing a variant of the nsrfp gene (L. lactis NZ9000SaNsrFH202AP)[34]. This NZ9000SaNsrFH202AP strain is used since the transporter carries a mutation in the H-loop, a highly conserved region of ABC transporters, and as a result is not able to hydrolyze ATP[47]. […] The growth of L. lactis NZ9000Cm, L. lactis NZ9000SaNsrFP, L. lactis NZ9000SaNsrFH202AP and L. lactis NZ9000NisT was monitored online over a time period of 500 min (Fig. 2a,b). After adding the different antibiotics to the culture, the growth curve was determined. […]
(§4) To detect the growth behavior of the different strains, precultures of L. lactis NZ9000Cm, L. lactis NZ9000SaNsrFP and L. lactis NZ9000SaNsrFH202AP cells were grown in GM17 medium with 5 or 10 µg/ml chloramphenicol and 0.3 nM nisin at 30 °C overnight. […] Growth was detected at OD584 every 10 min with a FLUOstar OPTIMA (BMG Lab technology).

L. lactis NZ9000SaNsrFP [5] = experiment: Growth curve, SaNsrFP-producing strain; assay type: cell-based, Lactococcus lactis; conditions: 1 µM bacitracin + 1 mM ZnCl2 or 4 µM bacitracin without zinc; 0.3 nM nisin; compared with untreated control strain
Text: as §3, §4

[6] = system: L. lactis NZ9000SaNsrFH202AP; experiment: Growth curve, ATP-hydrolysis deficient mutant strain; assay type: cell-based, Lactococcus lactis; conditions: 4 µM bacitracin without ZnCl2; 0.3 nM nisin; monitored over 500 min
Text: as §3, §4

L. lactis NZ9000NisT [7] = experiment: Growth curve, NisT-producing strain; assay type: cell-based, Lactococcus lactis; conditions: 1 µM bacitracin + 1 mM ZnCl2 or 4 µM bacitracin without zinc; 0.3 nM nisin; monitored over 500 min, 30 °C
Text: as §3, §4

L. lactis NZ9000Cm [8] = experiment: Cytoplasmic PGN precursor accumulation (HPLC/MS), empty-plasmid strain; assay type: cell-based, Lactococcus lactis; conditions: bacitracin 100 µg/ml added at OD600 1.2, 30 min at 30 °C, repeated once; HPLC/MS EIC 1148.4 and 1263.4
Procedure: (§5) Cells were grown in M17 medium supplemented with 0.5% glucose and 0.3 nM nisin overnight at 30 °C without shaking. The next day, 100 ml with 0.5% glucose and 0.3 nM nisin was inoculated with overnight cultures to OD600 = 0.1. When OD600 = 1.2 bacitracin (100 µg/ml) was added to the cultures to enrich cell wall precursors, and the cultures were incubated for an additional 30 min at 30 °C. This step was repeated once. (As a control, a second culture each was harvested before bacitracin was added at an OD600 = 1.2, and cell pellets were stored at − 20 °C) After incubation with bacitracin, the cells were harvested, and the cell pellets were stored at − 20 °C. The next day, the cell pellets were resuspended in 25 ml water and cooked for 60 min in boiling water to break the cells. Cell debris was removed by centrifugation (15 min, 500×g, 4 °C). […]
(§6) Five microliters of each sample were injected into an XCT6330 LC/MSD ultratrap system (Agilent Technologies) equipped with a Nucleosil 100 C18 column (3 μm × 100 mm × 2 mm internal diameter, Dr. Maisch GmbH). […] Extracted ion chromatograms (EICs) in negative ion mode for UDP-MurNAc-L-Ala-D-iGlu-L-Lys-D-Ala-D-Ala (m/z^−1 1148.34 ± 0.1) and UDP-MurNAc-L-Ala-D-iGlu-L-Lys-(D-Asp)-D-Ala-D-Ala (m/z^−1 1263.37 ± 0.1) were analyzed with Data Analysis (Bruker), exported and presented with GraphPad Prism 6.0.

L. lactis NZ9000SaNsrFP [9] = experiment: Cytoplasmic PGN precursor accumulation (HPLC/MS), SaNsrFP-producing strain; assay type: cell-based, Lactococcus lactis; conditions: bacitracin 100 µg/ml added at OD600 1.2, 30 min at 30 °C, repeated once; HPLC/MS EIC 1148.4 and 1263.4
Procedure: as §5, §6

[10] = system: L. lactis NZ9000SaNsrFH202AP; experiment: Cytoplasmic PGN precursor accumulation (HPLC/MS), ATP-hydrolysis deficient mutant strain; assay type: cell-based, Lactococcus lactis; conditions: bacitracin 100 µg/ml added at OD600 1.2, 30 min at 30 °C, repeated once; compared with NZ9000Cm
Procedure: as §5, §6

L. lactis NZ9000NisT [11] = conditions: for Fold of resistance L. lactis NZ9000NisT: IC50 of NZ9000NisT relative to NZ9000Cm; for IC50: read-out: IC50 (nM) L. lactis NZ9000NisT, GM17, 5 µg/ml chloramphenicol, 0.3 nM nisin, 30 °C, 5 h, optical density
L. lactis NZ9000NsrFP [12] = conditions: fold changes described earlier for SaNsrFP; ref 34 (Reiners et al.); cited from earlier work
Text: No significant differences were detected between NZ9000NsrFP and NZ9000NsrFH202AP with ramoplanin. […] IC50 values decreased to similar levels in L. lactis NZ9000SaNsrFH202AP (one, two ...

SaNSRS236A = system: SaNSRS236A; parameters: method as in earlier work; conditions: low-level resistance; ref 32 (Khosa et al.); cited from earlier work

Row | Molecule | IC50 (L. lactis NZ9000Cm [1]) | Fold of resistance L. lactis NZ9000NsrFH202AP [2] | IC50 [2] | Fold of resistance L. lactis NZ9000NsrFP (L. lactis NZ9000NsrFP [3]) | Fold of resistance L. lactis NZ9000NsrFP (L. lactis NZ9000NsrFP [3]; listed as bacitracin) | IC50 (L. lactis NZ9000NsrFP [3]) | Growth behaviour of L. lactis NZ9000Cm (L. lactis NZ9000Cm [4]) | Growth behaviour of L. lactis NZ9000SaNsrFP (L. lactis NZ9000SaNsrFP [5]) | Growth behaviour of L. lactis NZ9000SaNsrFH202AP [6] | Growth behaviour of L. lactis NZ9000NisT (L. lactis NZ9000NisT [7]) | PGN precursor accumulation in the cytoplasm, L. lactis NZ9000Cm (L. lactis NZ9000Cm [8]) | PGN precursor accumulation in the cytoplasm, L. lactis NZ9000SaNsrFP (L. lactis NZ9000SaNsrFP [9]) | PGN precursor accumulation in the cytoplasm, L. lactis NZ9000SaNsrFH202AP [10] | Fold of resistance L. lactis NZ9000NisT (L. lactis NZ9000NisT [11]) | IC50 (L. lactis NZ9000NisT [11]) | Fold of resistance conferred by SaNsrFP (L. lactis NZ9000NsrFP [12]) | Resistance against nisin, inactive protease variant SaNSRS236A (SaNSRS236A)
1 | CC[C@H](C)[C@H](N)C1=N[C@H](C(=O)N[C@@H](CC(C)C)C(=O)N[C@H](CCC(=O)O)C(=O)N[C@H](C(=O)N[C@H]2CCCCNC(=O)[C@H](CC(N)=O)NC(=O)[C@@H](CC(=O)O)NC(=O)[C@H](Cc3cnc[nH]3)NC(=O)[C@@H](Cc3ccccc3)NC(=O)[C@H]([C@@H](C)CC)NC(=O)[C@@H](CCCN)NC2=O)[C@@H](C)CC)CS1 [Bacitracin, bacitracin] ({Ileψ(thiazoline)Cys}-L[dE]IK[dOrn]I[dF]H[dD]N; lactam 4-C (inferred); N-terminus assumed) | 938 ± 94 nM | 13 fold | 12900 nM | 349 ± 65 fold | 350 fold | 328000 nM | Severe growth inhibition | did not show reduced growth | reduced growth | Severe growth inhibition | presence of the characteristic PGN precursors | no accumulation of the PGN precursors | reduced PGN precursor accumulation | 1 ± 0 fold | 733 nM | – | –
2 | CN[C@H](CC(C)C)C(=O)N[C@H]1C(=O)N[C@@H](CC(N)=O)C(=O)N[C@H]2C(=O)N[C@H]3C(=O)N[C@H](C(=O)N[C@H](C(=O)O)c4cc(O)cc(O)c4-c4cc3ccc4O)[C@H](O)c3ccc(c(Cl)c3)Oc3cc2cc(c3O[C@@H]2O[C@H](CO)[C@@H](O)[C@H](O)[C@H]2O[C@H]2C[C@](C)(N)[C@H](O)[C@H](C)O2)Oc2ccc(cc2Cl)[C@H]1O [Vancomycin, vancomycin] | 214 nM | 2 ± 1 fold | 325 ± 117 nM | 5 ± 1 fold | – | 1080 ± 264 nM | – | – | – | – | – | – | – | 1 ± 0 fold | 133 ± 9 nM | – | –
3 | gallidermin | – | – | – | – | – | – | – | – | – | – | – | – | – | – | – | 12 fold | –
4 | lysobactin | 30.7 nM | 3 ± 2 fold | 102 ± 52.2 nM | 6 ± 1 fold | – | 182 ± 37 nM | – | – | – | – | – | – | – | 1 ± 0 fold | 25 ± 3 nM | – | –
5 | nisin | – | – | – | – | – | – | – | – | – | – | – | – | – | – | – | 16 fold | 2.6 fold
6 | ramoplanin A2 | 73 ± 18 nM | 1 ± 0 fold | 92 ± 21 nM | 2 ± 1 fold | – | 121 ± 34 nM | – | – | – | – | – | – | – | 1.3 ± 0 fold | 95 nM | – | –
